Assay results from patent publication US12728126B2, “Compounds for inhibiting LY6K and methods of using same” (The Henry M. Jackson Foundation for the Advancement of …, priority 2020, dated 2026).

What was measured:
caspase 3 = assay: Western blot of caspase 3 activation in 4T1 cells; format: cell-based, mouse; conditions: 0.1 μM, 1.0 μM or 5.0 μM, 16 hours
Description: (§1) Cancer cells accumulate various mutations in their genome, yet they are protected against DNA damage induced apoptosis. Poly (ADP-ribose) polymerase (PARP) is a protein which facilitates DNA repair, genomic stability, and inhibits programmed cell death. PARP proteins are inactivated by cleavage of caspase 3 and caspase 7 in vivo. PARP inactivation cleavage and caspase activation by western blot was studied.
(§2) 4T1 mammary cells were plated at the same cell density. Cells were serum starved overnight. They were supplemented with medium containing 10% serum with or without doses of Compound I (0.1 μM, 1.0 μM or 5.0 μM) and for 16 hours. Equal quantity of protein was loaded for western blot analysis.

[1] = tested on: 4T1 mouse mammary tumor cells; assay: 4T1 syngeneic mammary tumor model, tumor growth in vivo; design: species or system Balb/c mice; conditions: 4T1 model
Description: A syngeneic mammary tumor model is used to show the effect of Ly6K small molecule inhibitors on tumor growth in vivo. 4T1 mouse model is an orthotopic allograft model (also called the spontaneous tumor metastasis model). In the 4T1 mouse model, 4T1 mouse mammary tumor cells were injected into the second mammary gland of syngenetic Balb/c mice, and the spontaneous metastasis to the lung were analyzed with a colonogenic assay. 4T1 mice bearing 50-70 mm^3 tumors were treated with NSC243928 or NSC11150 every second day at a dosage of 5 mg/kg in saline. Each group had 10 mice. Tumor measurements were performed using a Vernier caliper. The tumor volumes were calculated using equation ½*length*(width*width).

LY6K = molecular target: T1, LY6K (Mus musculus, UniProt Q9CWP4); assay: Western blot of total LY6K level in 4T1 cells; format: cell-based; design: dose or concentration left out as unconfirmed; conditions: overnight
T1 construct: endogenous in cells; host or cells: 4T1 mouse mammary tumor cells
T1 sequence (Q9CWP4 21-123): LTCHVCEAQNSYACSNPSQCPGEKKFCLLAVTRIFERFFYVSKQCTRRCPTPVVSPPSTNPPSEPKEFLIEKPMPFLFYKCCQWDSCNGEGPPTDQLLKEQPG
Description: 4T1 cells were treated with a concentration of 0.1 […] of Compound I overnight.

[2] = tested on: Myeloid-derived suppressor cells (MDSCs); assay: MDSCs (Cd11b and Gr1 dual positive cells) in peripheral blood of 4T1 tumor bearing mice, flow cytometry; format: in vivo; conditions: three doses of 50 mg/kg
Description: Myeloid-derived suppressor cells (MDSCs) are a major cell type which suppress the anti-tumor response. Cd11b and Gr1 dual positive cells in lymphocytes from peripheral blood from 4T1 tumor bearing mice received Compound I and the control group (10 mice in each group).
Three doses of Compound I (50 mg/kg) was injected via intravenously and intraperitoneally, and intravenous and peripheral blood was collected. Freshly isolated lymphocytes were stained with Cd11b and Gr-1 and a dye which can discriminated live and dead cells. The flow cytometry analysis for dual positivity was performed by gating on the live cells.

IFNγ/Stat1 signaling = assay: Western blot of IFNγ induced phosphorylation of Stat1; format: cell-based; conditions: serum starved, IFN γ (100 ng/mL), 2 μM, 30 minutes
Description: Cells were serum starved overnight and then treated with TGF 13 (10 ng/mL) or IFN γ (100 ng/mL) in the presence of 2 μM NSC243928 or NSC11150 for 30 minutes followed by protein analysis using western blot. […] NSC243928 inhibited the TGFβ1 induced phosphorylation of Smad2/3; NSC11150 had no effect on TGFβ1/Smad2/3 signaling. NSC11150 inhibited IFNγ induced phosphorylation of Stat1; NSC243928 had no effect on IFNγ/Stat1 signaling.

PARP = assay: Western blot of PARP inactivation cleavage in 4T1 cells; format: cell-based, mouse; conditions: 0.1 μM, 1.0 μM or 5.0 μM, 16 hours
Description: as §1, §2

PD-L1 = PD-L1 protein expression in control cells; format: cell-based; conditions: 2 μM
4T1 mammary cancer cells = assay: beta gal cellular senescence assay; format: cell-based, mouse
Description: 4T1 mammary cancer cells show lack of contact inhibited cell growth, i.e. the cells can grow on top of each other. 4T1 mammary cells were plated at the same cell density. Cells were serum starved overnight. They were supplemented with medium containing 10% serum with or without indicated doses of the Compound I for 16 hours.
It is thus contemplated that treatment with Compound I may lead to suppression of active proliferation, and one of such mechanisms is by induction of cellular senescence. Thus, a beta gal cellular senescence assay was carried out.

E0771 tumors = assay: E0771 mammary tumor in syngeneic C57Bl/6 model, tumor growth and re-challenge; format: in vivo, C57BL6 mice
Description: Treatment of E0771 tumors in a syngeneic C57Bl/6 model with compounds described herein reduced tumor growth, while combination treatment with the two small molecules completely eliminated tumor growth. The treatment was halted after tumor disappearance. Three weeks later, the cured mice were re-challenged with E0771 tumor cells, with complete, durable protection against tumor growth.
In another study, syngeneic female C57BL6 mice were injected with mammary tumor cell line E0771 in the 4th mammary gland. After tumors were palpable, they were injected intra-peritoneal injection every 3rd day at 10 mg/kg. The tumor measurements were performed with caliper method. 5 out of 5 control mice continued to sustained tumor growth. […] The drug treatment was stopped after the resolve of the tumors. The cured mice (three out of five) were kept under observation for one month. These mice were re-challenged with E0771 tumor cell inoculation into mammary gland. A control naïve group of C57BL6 were simultaneous inoculated with same batch of E0771 tumor cells in to mammary gland. Tumor progression was monitored in both group. […] Tumor volume was measured in mm^3. Thus, Compound I treatment resolves tumor and induces anti-tumor immunity.

[3] = E0771, intra-peritoneal, every 3rd day, 10 mg/kg

`CCS(=O)(=O)Nc1ccc(Nc2c3ccccc3nc3ccccc23)c(OC)c1` [Compound I, N-(4-(acridin-9-ylamino)-3-methoxyphenyl)ethanesulfonamide] was tested, and the “caspase 3 activation” value (caspase 3) was “activated”, the “day following treatment at which inhibition on tumor growth is statistically significant” value ([1]; 5 mg/kg every second day, P<0.005) was 3 days and the “inhibitory effect on tumor growth in vivo” value ([1]; 5 mg/kg in saline every second day) was “significant inhibitory effects”. The “total level of LY6K” value (LY6K) was “dose response reduction”, the “lower MDSCs in peripheral blood of treated mice” value [2] was “more than 90%” and the “Cd11b and Gr-1 dual positive cells in treated group” value ([2]; gated on live cells) was “significantly lower”. For the same compound, the “IFNγ induced phosphorylation of Stat1” value (IFNγ/Stat1 signaling) was “had no effect”, the “cleavage of PARP” value (PARP) was “Cleavage of PARP in a dose dependent manner” and the PD-L1 protein expression (PD-L1) was “did not show significant effect”. For the same compound, the “cell density in senescence assay” value (4T1 mammary cancer cells; 5.0 μM) was “cells density was very low”, the “induction of cellular senescence” value (4T1 mammary cancer cells; 0.001 to 1.0 μM) was “strong induction of cellular senescence” and the “treated mice with complete resolve of mammary tumor” value (E0771 tumors; [3]) was 3 out of 5. The “treated mice with partial response” value (E0771 tumors; [3]) was 2 out of 5 and the “cured mice that remained immune to tumor cells on re-challenge” value (E0771 tumors; re-challenged with E0771 after one month observation) was “Three out of three”.
